Experimental data taken from patent US20150072023A1, “[…] NITRIC OXIDE FOR TREATING RESPIRATORY DISEASES” (Advanced Inhalation Therapies (AIT) Ltd., priority 2013, published 2015).
“Also recorded” adds a separate entry of the source.

Tests used:
[1] = system: human respiratory syncytial virus (rgRSV30); test: Plaque assay of gNO-exposed respiratory syncytial virus; format: cell-based; settings: 160 ppm exogenous gaseous NO
[2] = Prospective phase I open label safety study of intermittent 160 ppm gNO inhalation in healthy adults; format: in vivo, human
Source text: 10 healthy adult volunteer subjects (5 males, 5 females), aged 20 to 62 years, were enrolled in the study after screening their medical history, a physical examination, pulmonary function tests and blood values. Exclusion criteria included individuals less than 19 years of age, pregnant females and unwilling to practice birth control during the study, diagnosed with pulmonary disease, epistaxis, hemoptysis, methemoglobinemia, organ transplant recipient or receiving antibiotic therapy.
After obtaining informed consent, treatment was initiated within 5 days of enrollment. Subjects were housed in a hospital ward and received 160 ppm gNO for 30 minutes every four hours (Q4h), five times a day, for five consecutive days by inhalation. Subjects returned for follow-up evaluations 3, 7 and 21 days after the final gNO administration. Subject safety was determined by monitoring vital signs, methemoglobin levels, lung function, blood chemistry, hematology, prothrombin time, inflammatory cytokine/chemokines levels and endothelial activation. These parameters were compared to baseline and at various time-points during and after gNO administration.
Subjects were administered gNO through a modified disposable mouthpiece to maximize mixing. Inspiration was spontaneously initiated by the subject from a conventional intermittent positive pressure breathing respirator (Mark-7, Carefusion, USA) in fixed flow mode delivering 48 liters per minute (LPM). Flows of gas were verified with a calibrated mass flow meter (TSI, USA). Gaseous nitric oxide (gNO, obtained at INOmax, Ikaria, USA) at a concentration of 800 ppm delivered at a flow of 12 LPM was titrated into a distal delivery port on the mouth piece connected to the respirator during inspiratory phase only (pressure switch). The Mark 7 respirator was supplied by an air/oxygen blender (Bird Sentry, Carefusion, USA) set to deliver 26% oxygen.
The levels of gNO, NO2, O2 and methemoglobin were monitored during the administration of gNO. The target gas mixture was 160 ppm gNO with a nitrogen dioxide (NO2) level of less than 5 ppm and an oxygen (O2) level ranging from 21% to 25%. Inspiratory NO, NO2 and O2 levels were continuously monitored by sampling from the mouthpiece sample port located about 6 millimeters from the mouth of the subject with an AeroNOx (Pulmonox, AB, Canada) NO, NO2 and O2 electrochemical analyzer. Delivery safety was determined by the number of occasions that NO2 exceeded 5 ppm, gNO exceeding 10% variation and O2 dropping below 20% during gNO administration. A commercially available noninvasive pulse oximeter (Rad 57, Masimo Corporation, USA) was used to measure saturation levels at the periphery of methemoglobin (SpMet).
These parameters were measured continuously during every gNO administration course and for 3.5 hours after the first treatment of the day. Daily serum samples were collected and frozen at −80° C. and the serum […] level was measured using the Griess reagent.
Subjects underwent full pulmonary function tests (PFT), including lung diffusing capacity (DLCO) by a trained technician utilizing a calibrated pulmonary function system (Jaeger MasterScreen, VIASYS Healthcare, USA) on screening and days 2, 8, 12 and 26. Spirometry test (Microloop by Micro Medical, England) was performed on days 1, 3 and 4. Effect of gNO on lung function and DLCO was determined by changes from baseline, treatment days and follow up days.
General medical examinations were performed by a pulmonary physician on screening and on days 8, 12 and 26 to obtain oxygenation and vital sign measurements. Abbreviated physical examination by a registered nurse was carried out each day prior to initiation of treatments on days 1-5. Oxygenation was measured with a pulse oximeter (Rad 57, Masimo Corporation, USA) which was used according to manufacturer's guidelines to measure functional oxygen saturation of arterial hemoglobin (SpO2) and heart rate. […]

[3] = Randomized double blind study of intermittent gNO inhalation in infants with bronchiolitis, interim results; format: in vivo, human; settings: infants 2-12 months
Source text: The following is an exemplary protocol for clinical studies based on the methods according to embodiments of the present invention, aimed at treatment of bronchiolitis in humans. Specifically, the topic of the study is a randomized double blind evaluation of efficacy, safety and tolerability of nitric oxide given intermittently via inhalation to subjects with bronchiolitis.
An improvised inhalation device is based on standard hospital equipment and hospital oxygen source. For example, oxygen is supplied from the main hospital oxygen system via an oxygen blender, such as for example, Bird model 03800, followed by a hospital's oxygen mass flow meter. The oxygen-rich air is monitored so as to reach a maximal final concentration of about 40% O2. The blended air/oxygen is supplied to the subject via a Y-shape connector attached next to a standard hospital face mask such as for example, a Hospiltak mask by Unomedical Inc.
gNO flow, tapped from a tank containing 800 ppm nitric oxide in 99.999% pure N2, supplied by an authorized gas provider in, for example, 50 or 30 litter containers with 120 bar or 150 bar respectively, is adjusted by passing through a standard hospital's regulator, such as for example CareFusion™ model 400, and the hospital mass flow meter, such as a CareFusion™ model 77063.
The gNO flow is adjusted before each inhalation cycle based on the gNO concentration detected in the subject's mask. After a fresh system calibration, the regulator and the mass flow meter are adjusted to deliver 160 ppm of gNO at 5 to 15 liters per minute. gNO is supplied to the subject via the second arm of the Y shaped connector (specified above) attached next to the face mask. Mask and tubing ports are used to monitor continuously gNO and NO2 concentrations and FiO2 values delivered to the subject.
Halitus (exhalation) is monitored by, for example, end-tidal CO2 (EtCO2). EtCO2 is monitored using standard equipment such as Microcap® Portable Capnography Monitor, Cat.# CSO4179 by Oridion, Israel, with nasal prongs such as (Infant Neonate Cat.#008179 by Oridion, Israel.
Methemoglobin (SpMet) and oxygen saturation or dissolved oxygen (SpO2) levels are monitored continuously using a dedicated monitor such as for example RAD 57 by Masimo.
The population for the study is 44 children of 2-12 months old diagnosed with bronchiolitis, whom required hospitalization (expected dropout rate is 10%). The population is split into two groups: Group 1, referred to as the treatment group, receives intermittent (5×30 minutes, a day) inhalation of 160 ppm gNO in addition to the standard treatment of O2 administration, for up to 5 days. Between gNO inhalations, the subjects continue to receive the standard inhalation treatment (O2). Group 2, referred to as the control group, receives continuous inhalation of the standard treatment (O2).
Group 1 (treatment group) receives the standard treatment (O2) combined with the inhalation via face mask of […] administered for 30 minutes every four hours, keeping a minimum of 3 hours between the end of one gNO inhalation cycle and the beginning of the next cycle, five times a day for five consecutive days or until a decision to discontinue therapy. The maximal cumulative exposure to nitric oxide is estimate at 2,000 ppm hours.

S. aureus = settings: agar plates exposed to gNO; cited from earlier work
P. aeruginosa = settings: agar plates exposed to gNO; cited from earlier work
[4] = system: influenza A/victoria/H3N2; settings: 160 ppm exogenous gNO, MDCK cell model; cited from earlier work
[5] = system: highly pathogenic Avian Influenza H7N3; settings: cited from earlier work
[6] = 300 ppm gNO, first 1-2 days, group of 10 rats; cited from earlier work
[7] = system: five planktonic species of methicillin resistant S. aureus (MRSA); settings: 1,600 ppm hours of gNO; cited from earlier work
[8] = topical 200 ppm gNO, within the first three days of treatment; cited from earlier work
[9] = in vivo; cited from earlier work
[10] = cited from earlier work
[11] = 250 gNO administration procedures, 10 subjects
[12] = during and after gNO administration

[N]=O [gNO, nitric oxide]
infectivity [1]: reduced their infectivity
average increase of SpMet in a single treatment course ([2]; 160 ppm gNO for 30 minutes, ten individuals): 0.9%
adverse events / tolerability [2, 11]: do not cause lung injury or other signs of adverse effects in humans; also recorded: Neither significant adverse events nor adverse events attributable to gNO inhalation occurred; also recorded: safe and well tolerated; also recorded: no significant adverse events were observed
number of minor adverse events reported [2, 11]: Three
plasma cytokine levels of TNF, IL-6, IL-8, IL-10, IL-1b and IL-12p70 ([2]; cytometric bead array, vs baseline): unaffected; also recorded: remained constant
pulmonary function tests [2, 12]: impacts lung function only minimally; also recorded: remained unchanged compared to baseline values
vital signs [2, 12]: remained well within acceptable clinical margins
accumulative or residual effect on SpMet ([2]; five daily treatments for five consecutive days, follow-up 3, 7 and 21 days): no accumulative or lingering effect; also recorded: did not show any residual increase in SpMet
vascular endothelial activation factors Ang-1, Ang-2, Ang-2/Ang-1 ratio ([2]; plasma, vs baseline): not affected; also recorded: unaffected
NO2 levels during treatment [3]: below 2 ppm
pre-methemoglobin levels in each treatment [3]: less than 5%
premature withdrawal due to NO related adverse effect [3]: no infant withdrew prematurely
tolerability [3]: All patients tolerated the NO treatment
time for SpMet to return to the baseline levels ([3]; 160 ppm gNO 30 min): 210 min
effect on bacterial growth (S. aureus): bacteristatic effect
effect on bacterial growth (P. aeruginosa): bacteristatic effect
viral replication and infectivity [4]: reduced their infectivity; also recorded: capable of reducing the infectivity
viral replication and infectivity [5]: reduced their infectivity; also recorded: capable of reducing the infectivity
number of animals that died [6]: Six
bacterial population [7]: reduction in the population
biofilm [8]: no longer visibly present
radius of action from its site of origin [9]: approximately 200 microns
inhalation threshold limit value (TLV) as time-weighted average (TWA) ([10]; OSHA / Environmental Protection Agency): 25 ppm
TLV-TWA in ppm hours units ([10]; calculated): 200 ppm hours
